Experimental data as given in US20070275932A1, “Aryl, heteroaromatic and bicyclic aryl nitrone compounds, prodrugs and pharmaceutical compositions of the same to treat human disorders” (Renovis, Inc., priority 2003, published 2007).
Counter-ions that a name gives are not always drawn.

Assay: Free radical-scavenging/antioxidant assay (DPPH)
Format: biochemical
Conditions: 50 μM DPPH in 80% methanol, absorbance at 520 nm, 24 h time point (steady state); read-out: EC50 (concentration at which a compound reduces by 50% the peak absorbance of DPPH at 520 nm)
Method: Nitrone compounds of the present invention were tested for their free-radical scavenging/antioxidant activity in an in vitro assay that is accepted by those skilled in the art as a model for conditions involving the generation of free radicals. The assay is based on a reaction between a free-radical donor, 2,2-diphenyl-1-picrylhydrazyl (DPPH), and a radical scavenger/antioxidant to be tested for free-radical scavenging activity. Upon donation of the free-radical electron to the purported radical scavenger, the peak visible absorbance of DPPH (515-520 nm) decreases so that optical density readings at this part of the visual spectrum reflect the progression of the following reaction: DPPH∩+AH→DPPH-H+A∩ where AH is a hypothetical radical scavenger/antioxidant. The assay is based on a protocol originally detailed in Brand-Williams, W. et al., 1995, Use of a Free Radical Method to Evaluate Antioxidant Activity, Lebensm. Wiss. Technol., 28:25-30, with further modifications described in L. R. Fukumoto and G. Mazza, 2000, Assessing Antioxidant and Prooxidant Activities of Phenolic Compounds, J. Agric. Food Chem., 48:3597-3604.
The antioxidant assay was performed using Perkin-Elmer 96-well, clear-bottom, black-wall plates (ordered from E & K Scientific Products) and a Tecan Safire absorbance plate reader. The positive controls were Trolox (6-hydroxy-2,5,7,8-tetramethylchromane-2-carboxylic acid, Sigma-Aldrich), BHA (2(3)-tert-butylhydroquinone monomethyl ether, Sigma-Aldrich), PBN (C-(phenyl)-N-(tert-butyl)nitrone, Sigma-Aldrich) and S-PBN (C-(2-sulfophenyl)-N-(tert-butyl)nitrone, sodium salt, prepared according to E. G. Janzen and R. V. Shetty, 1979, Tetrahedron Lett., 35: 3229-32), and the negative control (i.e., vehicle) was DMSO. In brief, 2 μL of 100×DMSO stock of the desired final concentration of each control or nitrone compound to be tested in the same batch was added to a separate well. To each well was then added 198 μL of a freshly made 50 μM DPPH (Sigma-Aldrich) solution in 80% methanol using a multi-channel pipette. The absorbance was immediately read on the plate reader at 520 nm and thereafter read periodically to assess kinetics until all reactions reached completion (i.e., steady state). Since the steady-state point was 24 h, the assay results are shown from the 24 h time point. The absorbance at 520 nm (OD) was plotted versus the concentrations of the controls and nitrone compounds to assess dose-response and interpolate the EC50 values of the controls and test compounds.

For `CC(C)(C)C(=O)Nc1cccc(/C=[N+](\[O-])C2CCCCC2)n1` [Example 52, N-Cyclohexyl-C-[6-(2,2-dimethylpropanamido)pyridin-2-yl]nitrone], the EC50 was 500 to 1000 µM.

Compound `CC(C)(C)C(=O)Nc1cccc(/C=[N+](\[O-])Cc2ccccc2)n1` [Example 53, N-Benzyl-C-[6-(2,2-dimethylpropanamido)pyridin-2-yl]nitrone] has an EC50 of 10 to 100 µM.

Work on `CC(C)(C)[N+]([O-])=Cc1ccccc1` [PBN, C-(phenyl)-N-(tert-butyl)nitrone, reference compound] yielded an EC50 greater than 1000 µM.

Compound `CC(C)(C)[N+]([O-])=Cc1ccccc1S(=O)(=O)O` [S-PBN, C-(2-sulfophenyl)-N-(tert-butyl)nitrone, sodium salt, reference compound] has an EC50 greater than 1000 µM.

Work on `Cc1c(C)c2c(c(C)c1O)CCC(C)(C(=O)O)O2` (centres unmarked) [Trolox, 6-hydroxy-2,5,7,8-tetramethylchromane-2-carboxylic acid, reference compound] yielded an EC50 of less than 10 µM.
